Assays:
Format in all cases: in vivo, human
[1] = Phase 1/2 trial safety: adverse events, all-cause mortality
Source text: Safety was monitored throughout the study by physical examinations and clinical laboratory tests, including hematology, chemistry for liver and renal function, urinalysis, pregnancy tests, pharmacokinetics, epi-genetics, buccal swab, and pharmacogenetic markers. Electrocardiograms were obtained at baseline screening and day 1 of each treatment cycle.
The primary endpoint was overall response, which was a composite of complete response (CR), partial response, marrow complete response (mCR), and hematological improvement. Overall response was assessed by local investigators. Secondary endpoints included the individual components of overall response, time to response, duration of response, overall survival, blood transfusion and platelet transfusion independence at weeks 8 and 16, and safety, including the incidence of adverse events, and all-cause early mortality at 30, 60, and 90 days. Exploratory analyses were done to examine the association between baseline characteristics and overall response.
Treatment-emergent adverse events, which are events that first occurred or worsened after the first dose of study drug until 30 days after the last dose or until the start of an alternative anticancer treatment (whichever occurred first), and all-cause 30-day, 60-day, and 90-day cumulative mortality, were summarized descriptively.

[2] = tested on: acute myeloid leukemia (TN and relapsed/refractory AML); assay: Phase 2 study in AML (TN and r/r): landmark response and survival analyses
Experimental: In a Phase 2 study of 206 AML patients, both treatment naïve (TN), and relapsed/refractory (r/r), patients were treated with Compound I-1 using different doses and schedules. The patients were randomized either to a 5- or 10-day dosing regimen. The patients who were part of the 10-day regimen were given Compound I-1 at 60 mg/m^2/day for 1-4 cycles, then were given the 5-day regimen. The patients who were part of the 5-day regimen were randomized either to the biologically effective dose group (60 mg/m^2 daily) or the highest well tolerated dose group (90 mg/m^2 daily).
Landmark response (CR, CRi, or CRp based on 2003 IWG criteria, grouped together as composite CR or CRc), and overall survival (OS) analyses for patients alive at or beyond month 3 and month 5 (time of planned start of cycle 4 and cycle 6, respectively) were conducted. […] The results in responding and non-responding patients were also compared to see whether survival benefit was restricted to responding patients only.

[3] = tested on: relapsed/refractory (r/r) AML; assay: Phase 2 study in relapsed/refractory AML: response, duration of response, survival; conditions: for CR response rate, % / CRc (CR + CRp + CRi) response rate, % / CRi response rate, % / CRp response rate, % / CRc, %: r/r AML; for CRc, %: all regimens
Experimental: A Phase 2 study of Compound I-1 using different regimens and doses (randomized 5-day regimen cohorts of 60 mg/m^2/d vs 90 mg/m^2/d SC) and a cohort of 10-day regimen in the first 1-4 cycles at 60 mg/m^2/d followed by subsequent cycles of 5-day regimen) was conducted as described above. Response and duration of response were assessed using IWG 2003 criteria: Complete Response (CR), CR with incomplete platelet recovery (CRp), and CR with incomplete count recovery (CRi). CR+CRp+CRi was defined as composite CR (CRc). Overall survival (OS) was assessed using the Kaplan-Meier (KM) method. Response status for each dose/regimen cohort and the overall treated population were assessed with analyses of duration of response and long-term survival.

[4] = 5 Day regimen (60 and 90 mg/m^2), n = 50
[5] = 10 Day regimen (60 mg/m^2), n = 53

Nc1ncn([C@H]2CC(OP(=O)(O)OC[C@H]3O[C@@H](n4cnc5c(=O)[nH]c(N)nc54)CC3O)[C@@H](CO)O2)c(=O)n1 (some centres unmarked) [Compound I-1]
Patients who died from serious adverse events ([1]; all treated): Seven
Drug-related serious adverse event anemia ([1]; human, in vivo): 3%
Drug-related serious adverse event pneumonia ([1]; human, in vivo): 7%
Drug-related serious adverse event thrombocytopenia ([1]; human, in vivo): 3%
30-day all-cause mortality ([1]; of 102 patients): 1%
60-day all-cause mortality ([1]; of 102 patients): 4%
90-day all-cause mortality ([1]; of 102 patients): 9%
Serious adverse events that led to death considered treatment related ([1]; pneumonia with 90 mg/m^2 and septic shock with 60 mg/m^2): two
Median OS ([2]; landmark, at least 4 cycles): 13.7 m
CRc rate ([2]; landmark, at least 4 cycles (97 patients)): 62%
OS HR ([2]; landmark, at least 4 cycles vs not): 0.53
Median OS ([2]; landmark, at least 6 cycles): 19.9 m
CRc rate ([2]; landmark, at least 6 cycles (51 patients)): 82.4%
OS HR ([2]; landmark, at least 6 cycles vs not): 0.42
Median OS ([2]; landmark, fewer than 4 cycles): 6.1 m
CRc rate ([2]; landmark, fewer than 4 cycles (64 patients)): 25%
Median OS ([2]; landmark, fewer than 6 cycles): 8.8 m
CRc rate ([2]; landmark, fewer than 6 cycles (82 patients)): 35.4%
Median OS ([2]; no CRc, at least 4 cycles): 8 m
OS HR ([2]; no CRc, at least 4 cycles vs not): 0.63
Median OS ([2]; no CRc, at least 6 cycles): 12.9 m
OS HR ([2]; no CRc, at least 6 cycles vs not): 0.40
Median OS ([2]; no CRc, fewer than 4 cycles): 5.4 m
Median OS ([2]; no CRc, fewer than 6 cycles): 8 m
CR Rate ([3]; 5-day regimen): 8%
CRc rate ([3]; 5-day regimen): 16%
CR Rate ([3]; 10-day regimen): 19%
CRc rate ([3]; 10-day regimen): 30%
2-year survival rate ([3]; CR): 57%
2-year survival rate ([3]; CRc patients receiving HCT): 50%
2-year survival rate ([3]; CRc patients who did not undergo HCT): 60%
2-year survival rate ([3]; CRp/CRi): 50%
CRc ([3]; early relapse (<6 months from prior treatment)): 22%
CR Composite (CR + CRp + CRi) Duration of Response, median (range) ([3]; in vivo): 7.8 (0.5-30) Months
Complete Response (CR) Duration of Response, median (range) ([3]; in vivo): 7 (1-29.5) Months
Post treatment HCT in responders ([3]; in vivo): 58%
Achieved CRc ([3]; of 19 patients who had prior HCT): 5 patients
Median OS ([3]; patients who achieved CRc (either CR or CRp/CRi)): has not been reached
CRc ([3]; patients who relapsed after prior HCT (19 patients)): 26%
CRc ([3]; patients with poor risk cytogenetics): 19%
CR response rate, % [3, 4]: (6%)
CRc (CR + CRp + CRi) response rate, % [3, 4]: (16%)
CRi response rate, % [3, 4]: (8%)
CRp response rate, % [3, 4]: (2%)
CR response rate, % [3, 5]: (19%)
CRc (CR + CRp + CRi) response rate, % [3, 5]: (30%)
CRi response rate, % [3, 5]: (4%)
CRp response rate, % [3, 5]: (7%)
CRc, % ([3]; subgroup Age (y) <65 (N 63)): (19%)
CRc, % ([3]; subgroup Age (y) >65 (N 40)): (30%)
CRc, % ([3]; subgroup Cytogenetics Adverse (N 42)): (19%)
CRc, % ([3]; subgroup Cytogenetics Diploid (N 21)): (19%)
CRc, % ([3]; subgroup Cytogenetics Others (N 40)): (30%)
CRc, % ([3]; subgroup ECOG PS 0-1 (N 89)): (26%)
CRc, % ([3]; subgroup ECOG PS 2 (N 12)): (7%)
CRc, % ([3]; subgroup Prior HCT No (N 84)): (23%)
CRc, % ([3]; subgroup Prior HCT Yes (N 19)): (26%)
CRc, % ([3]; subgroup Response to Induction CR (N 55)): (15%)
CRc, % ([3]; subgroup Response to Induction Refractory (N 48)): (25%)
CRc, % ([3]; subgroup Time From Last Therapy <6 months (N 82)): (22%)
CRc, % ([3]; subgroup Time From Last Therapy >6 months (N 20)): (30%)
CRc ([3]; refractory patients): 31%
